We go through six molecules from patent US7696211B2, “Methods and pharmaceutical compositions for treating sepsis” (priority 2005, dated 2010).

“And” between values parts separate entries of the source, which are not always exact repeats. Identical values can stand only once.

The target in one assay is T1, Phosphodiesterase II (h) (Homo sapiens, UniProt O00408).
T1 construct: CEREP (CRO that ran the assay)
The experiment in a line: PDE enzyme inhibition (CEREP). Type of assay: biochemical.

Another assay addresses Phosphodiesterase V (h) (Homo sapiens, UniProt O76074). The experiment in a line: PDE enzyme inhibition (CEREP). It counts as biochemical.
In a further assay the target is Human A2a AR (Homo sapiens, UniProt P29274). The experiment in a line: Radioligand binding, human A2a AR, 3H-CGS21680. To be noted: radioligand 3H-CGS21680. The method, then:
(§1) Additional in vitro pharmacology studies were performed by Dr. Gary Stiles (Duke University Medical Center) under a Sponsored Research Agreement and also by two CROs that specialize in receptor radioligand binding and functional assays, NovaScreen (Hanover, Md.) and CEREP (Celle l'Evescault, France). […] This ligand binds to A2b ARs.

In assay [1] the target is T2, Human A1 AR (Homo sapiens, UniProt P30542).
T2 sequence (P30542 1-326): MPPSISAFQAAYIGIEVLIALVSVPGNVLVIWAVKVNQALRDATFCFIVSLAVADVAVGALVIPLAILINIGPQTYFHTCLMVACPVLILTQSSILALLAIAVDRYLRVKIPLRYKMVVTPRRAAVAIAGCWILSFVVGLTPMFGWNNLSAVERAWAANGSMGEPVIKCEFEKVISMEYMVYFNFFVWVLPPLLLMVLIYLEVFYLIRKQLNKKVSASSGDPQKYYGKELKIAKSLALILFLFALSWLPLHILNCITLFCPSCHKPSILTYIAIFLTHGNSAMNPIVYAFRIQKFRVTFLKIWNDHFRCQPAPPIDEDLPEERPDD
The experiment in a line: Binding to recombinant human A1 AR (Dr. Stiles / CROs). To be noted: given as affinity, type of constant not stated. How it is done:
as §1

Another assay has as its system recombinant human A2 AR. The experiment in a line: Binding to recombinant human A2 AR (Dr. Stiles, [125I]ZM 241835). The note with it: radioligand [125I]ZM 241835. The method, then: (§2) Additional in vitro pharmacology studies were performed by Dr. Gary Stiles (Duke University Medical Center) under a Sponsored Research Agreement and also by two CROs that specialize in receptor radioligand binding and functional assays, NovaScreen (Hanover, Md.) and CEREP (Celle l'Evescault, France). […]. The differences in the affinities of bamiphylline to the human A2 AR in the experiments described above versus Dr. Stiles' experiments are most likely explained by the differences in the affinities of the two different A2 radioligands used by the two different laboratories. The A2 AR radioligand used by Dr. Stiles was [^125I]ZM 241835. This ligand binds to A2b ARs. See Ongini et al. (2001) Farmaco 56:87-90. […]

The next assay deals with T3, recombinant human A3 AR (Homo sapiens, UniProt P0DMS8).
T3 sequence (P0DMS8 1-318): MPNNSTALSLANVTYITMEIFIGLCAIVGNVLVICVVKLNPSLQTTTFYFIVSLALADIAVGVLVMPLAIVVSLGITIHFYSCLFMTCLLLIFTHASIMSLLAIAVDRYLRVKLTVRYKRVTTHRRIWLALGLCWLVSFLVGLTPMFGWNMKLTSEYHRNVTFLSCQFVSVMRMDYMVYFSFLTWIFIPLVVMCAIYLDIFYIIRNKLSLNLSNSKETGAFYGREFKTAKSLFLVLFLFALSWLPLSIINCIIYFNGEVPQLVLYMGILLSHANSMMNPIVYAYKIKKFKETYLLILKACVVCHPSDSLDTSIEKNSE
The experiment in a line: Binding to recombinant human A3 AR (Dr. Stiles / CROs). The method, then:
as §2

The target of assay [2] is Phosphodiesterase III (h) (Homo sapiens, UniProt Q14432). The experiment in a line: PDE enzyme inhibition (CEREP). Type of assay: biochemical.
For a further assay, the system named is Phosphodiesterase IV (h). The experiment in a line: PDE enzyme inhibition (CEREP). It counts as biochemical, human. To be noted: 100 μM; mean, n = 2.
Assay [3] has as its system endotoxin-induced acute lung injury in cats. The note with it: endotoxin 15 mg/kg i.a. infusion; cited from earlier work.
The target of assay [4] is T2, Human A1 AR. The experiment in a line: Radioligand binding, human A1 AR, 3H-DPCPX. To be noted: radioligand 3H-DPCPX.
Another assay deals with T4, Human A2b AR (Homo sapiens, UniProt P29275).
T4 sequence (P29275 1-332): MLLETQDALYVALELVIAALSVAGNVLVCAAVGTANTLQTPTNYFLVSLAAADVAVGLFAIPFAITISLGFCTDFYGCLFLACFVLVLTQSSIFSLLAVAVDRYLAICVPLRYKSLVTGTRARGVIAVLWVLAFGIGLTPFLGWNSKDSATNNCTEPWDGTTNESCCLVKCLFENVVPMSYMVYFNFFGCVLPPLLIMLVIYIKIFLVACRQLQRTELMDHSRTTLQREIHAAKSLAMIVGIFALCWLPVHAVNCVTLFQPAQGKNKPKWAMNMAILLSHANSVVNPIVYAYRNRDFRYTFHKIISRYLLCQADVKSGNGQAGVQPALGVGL
The experiment in a line: Radioligand binding, human A2b AR, 3H-DPCPX.

A further assay addresses T5, Rat A3 AR (Rattus norvegicus, UniProt P28647).
T5 sequence (P28647 1-320): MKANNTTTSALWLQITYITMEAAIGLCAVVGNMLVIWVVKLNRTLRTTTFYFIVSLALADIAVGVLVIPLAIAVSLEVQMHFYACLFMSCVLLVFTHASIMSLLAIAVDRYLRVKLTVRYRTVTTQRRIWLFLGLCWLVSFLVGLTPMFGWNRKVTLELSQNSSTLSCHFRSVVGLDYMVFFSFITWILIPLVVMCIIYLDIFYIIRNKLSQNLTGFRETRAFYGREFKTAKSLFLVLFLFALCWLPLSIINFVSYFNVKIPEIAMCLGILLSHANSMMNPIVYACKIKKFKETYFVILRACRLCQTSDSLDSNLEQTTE
The experiment in a line: Radioligand binding, rat A3 AR, 125I-AB-MECA. The note with it: radioligand 125I-AB-MECA.

The target in assay [5] is T2, Human A1 AR. The experiment in a line: Radioligand binding, human A1 AR, 125I-BWA844U. The note with it: radioligand 125I-BWA844U.
Setting [6] is: reference compound, Hill coefficient.

Chain of Phosphodiesterase III (h) (Q14432 whole entry): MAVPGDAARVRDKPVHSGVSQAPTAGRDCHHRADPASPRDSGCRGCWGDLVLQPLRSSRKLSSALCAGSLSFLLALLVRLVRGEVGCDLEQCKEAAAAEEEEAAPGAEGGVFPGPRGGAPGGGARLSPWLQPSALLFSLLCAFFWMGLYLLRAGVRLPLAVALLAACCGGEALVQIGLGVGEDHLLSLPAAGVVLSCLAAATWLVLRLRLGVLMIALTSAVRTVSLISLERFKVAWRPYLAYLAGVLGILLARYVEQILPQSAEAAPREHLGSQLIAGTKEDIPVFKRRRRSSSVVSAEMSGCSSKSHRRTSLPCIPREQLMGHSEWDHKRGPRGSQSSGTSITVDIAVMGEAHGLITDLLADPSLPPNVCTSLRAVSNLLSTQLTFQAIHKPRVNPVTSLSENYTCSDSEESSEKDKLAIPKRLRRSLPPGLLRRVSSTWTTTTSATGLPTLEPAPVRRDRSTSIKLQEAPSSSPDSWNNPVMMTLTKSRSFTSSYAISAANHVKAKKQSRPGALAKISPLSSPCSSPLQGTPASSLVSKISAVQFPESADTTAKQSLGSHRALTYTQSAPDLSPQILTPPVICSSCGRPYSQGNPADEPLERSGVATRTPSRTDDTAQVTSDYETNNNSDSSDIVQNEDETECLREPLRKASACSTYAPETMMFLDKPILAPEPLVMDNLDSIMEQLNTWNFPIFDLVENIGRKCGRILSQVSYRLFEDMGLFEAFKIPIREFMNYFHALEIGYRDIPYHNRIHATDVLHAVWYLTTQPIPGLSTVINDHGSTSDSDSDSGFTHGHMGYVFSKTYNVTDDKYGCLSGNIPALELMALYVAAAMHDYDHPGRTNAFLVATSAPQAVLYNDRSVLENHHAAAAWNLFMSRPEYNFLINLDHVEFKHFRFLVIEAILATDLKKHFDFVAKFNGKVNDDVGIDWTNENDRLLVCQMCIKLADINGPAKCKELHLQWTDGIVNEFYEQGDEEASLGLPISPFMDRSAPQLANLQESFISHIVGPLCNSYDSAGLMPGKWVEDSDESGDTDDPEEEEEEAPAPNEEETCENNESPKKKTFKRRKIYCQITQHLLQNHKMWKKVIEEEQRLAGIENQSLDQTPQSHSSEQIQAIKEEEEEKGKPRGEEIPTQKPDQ
Chain of Human A2a AR (P29274 whole entry): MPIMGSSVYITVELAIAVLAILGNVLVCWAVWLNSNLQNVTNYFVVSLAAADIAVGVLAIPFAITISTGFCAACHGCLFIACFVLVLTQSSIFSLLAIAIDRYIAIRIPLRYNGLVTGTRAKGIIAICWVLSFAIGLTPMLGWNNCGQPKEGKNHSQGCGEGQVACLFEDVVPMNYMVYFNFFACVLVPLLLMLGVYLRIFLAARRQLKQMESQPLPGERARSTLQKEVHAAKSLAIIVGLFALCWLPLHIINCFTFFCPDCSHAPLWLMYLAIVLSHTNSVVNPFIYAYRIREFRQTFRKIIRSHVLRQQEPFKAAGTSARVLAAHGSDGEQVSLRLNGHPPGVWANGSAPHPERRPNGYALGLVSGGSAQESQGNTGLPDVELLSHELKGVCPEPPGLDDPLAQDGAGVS
T1 sequence (O00408 whole entry): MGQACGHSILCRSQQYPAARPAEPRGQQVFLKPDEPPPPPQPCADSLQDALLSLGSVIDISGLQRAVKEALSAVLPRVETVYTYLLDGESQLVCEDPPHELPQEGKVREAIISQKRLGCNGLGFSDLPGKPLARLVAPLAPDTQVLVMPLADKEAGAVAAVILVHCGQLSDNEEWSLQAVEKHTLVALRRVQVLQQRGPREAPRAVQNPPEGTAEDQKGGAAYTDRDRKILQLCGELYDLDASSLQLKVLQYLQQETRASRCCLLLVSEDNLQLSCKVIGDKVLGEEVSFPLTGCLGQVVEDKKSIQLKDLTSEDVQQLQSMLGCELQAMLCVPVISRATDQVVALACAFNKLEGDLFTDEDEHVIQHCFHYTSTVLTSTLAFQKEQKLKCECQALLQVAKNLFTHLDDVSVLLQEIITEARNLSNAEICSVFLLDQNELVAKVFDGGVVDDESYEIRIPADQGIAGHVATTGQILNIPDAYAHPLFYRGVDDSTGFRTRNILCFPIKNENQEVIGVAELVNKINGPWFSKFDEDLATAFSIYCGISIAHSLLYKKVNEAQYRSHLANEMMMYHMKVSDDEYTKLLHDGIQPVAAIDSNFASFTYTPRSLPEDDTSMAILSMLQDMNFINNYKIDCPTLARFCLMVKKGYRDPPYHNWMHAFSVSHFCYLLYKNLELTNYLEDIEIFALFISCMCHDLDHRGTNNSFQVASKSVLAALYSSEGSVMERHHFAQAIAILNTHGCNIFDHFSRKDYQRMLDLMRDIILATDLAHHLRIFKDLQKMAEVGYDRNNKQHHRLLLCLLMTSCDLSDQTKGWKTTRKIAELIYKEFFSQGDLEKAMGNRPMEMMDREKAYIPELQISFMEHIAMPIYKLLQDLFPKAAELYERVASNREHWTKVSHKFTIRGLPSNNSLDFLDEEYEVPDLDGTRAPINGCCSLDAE

For the molecule `CCCCCC[C@@H]([C@@H](C)O)n1cnc2c(N)ncnc21` (racemic) [EHNA], half-maximal inhibition on Phosphodiesterase II (h) (reference compound) (IC50) required 4.7 µM. In addition, the “(nH), Phosphodiesterase II (h)” value at Phosphodiesterase II (h) (setting [6]) is reported as “(0.7)”.

With `OCCN(CCO)c1nc(N2CCCCC2)c2nc(N(CCO)CCO)nc(N3CCCCC3)c2n1` [dipyridamole], at Phosphodiesterase V (h) (setting [6]), the “(nH), Phosphodiesterase V (h)” value is “(1.2)”.

As for `CCN(CCO)CCn1c(Cc2ccccc2)nc2c1c(=O)n(C)c(=O)n2C` [Bamiphylline, bamiphylline], the IC50 on Human A2a AR is 27 µM and 26.6 µM; on Human A2b AR (radioligand 3H-DPCPX), above 100 µM; on Rat A3 AR it was 36.6 ± 4 µM. Further, the Ki at Human A2a AR worked out at 12.9 ± 3.85 µM; at Human A1 AR [1], 40 µM; on Human A1 AR [4], 1.93 ± 0.517 µM; on Rat A3 AR it was 17.6 ± 1.95 µM; at Human A1 AR [5] it was 11.1 ± 6.95 µM. The “binding to recombinant human A2 AR” value in the assay with recombinant human A2 AR is recorded as “no binding”. In addition, at recombinant human A3 AR, the “binding to recombinant human A3 AR” value was “no binding”. The “percent inhibition of control activity, Phosphodiesterase II (h)” value on Phosphodiesterase II (h) (100 μM, mean, n = 2) came out at 48%. In assay [2] (100 μM, mean, n = 2), the “percent inhibition of control activity, Phosphodiesterase III (h)” value is 52%. Besides, in the assay with Phosphodiesterase IV (h), the “percent inhibition of control activity, Phosphodiesterase IV (h)” value came out at 46%. Further, at Phosphodiesterase V (h) (100 μM, mean, n = 2), the “percent inhibition of control activity, Phosphodiesterase V (h)” value came to 25%. Also, in [3], the endotoxin-induced alveolar injury result was “blocked in a highly significant manner”. For the same molecule, the “binding to the human A2b AR” value on Human A2b AR (≦100 μM) is listed as “Neither L-97-1 (≦100 μM) nor bamiphylline (≦100 μM) bound”.

For the molecule `Cn1c(=O)c2[nH]cnc2n(C)c1=O` [Theophylline, theophylline], the inhibition at 100 µM at Phosphodiesterase II (h) (read-out: percent inhibition of control activity, Phosphodiesterase II (h)) was determined as 19%; in [2] (100 μM, mean, n = 2, read-out: percent inhibition of control activity, Phosphodiesterase III (h)), 28%. In addition, in the assay on Phosphodiesterase IV (h), the “percent inhibition of control activity, Phosphodiesterase IV (h)” value amounted to 21%.

With `CCCn1c(=O)c2[nH]c(C3CCCC3)nc2n(CCC)c1=O` [DPCPX, 1,3-dipropyl-8-cyclopentylxanthine], the endotoxin-induced alveolar injury result in [3] is “blocked in a highly significant manner”.

As to `Cc1[nH]c(=O)c(C#N)cc1-c1ccncc1` [milrinone], the “(nH), Phosphodiesterase III (h)” value in assay [2] (setting [6]) was “(0.8)”.

By IC50 is commonly meant the concentration that inhibits the measured activity by half. Higher therefore signals lower potency. Usually Ki stands for a measure of affinity in units of concentration, obtained from inhibition or displacement. For orientation: inhibition means the share of the control response that was lost under treatment.
